Experiment [1] has as its system primary rat hippocampal neurons. Particulars: primary rat hippocampal and dorsal root ganglion neurons; cited from earlier work.
A further experiment deals with HIV-1. Particulars: in vivo model of HIV-1 infection; cited from earlier work.
A further experiment concerns the target MLK3 (Rattus norvegicus (Rat), UniProt Q66HA1). Particulars: primary rat neurons; cited from earlier work.
A further experiment relates to Human monocytes. Nature of the experiment: Tat-assays: Tat-induced cytokine and chemokine production in human monocytes (Luminex). Particulars: 50 nM HIV-1 Tat, 8 hours. It is filed as cell-based. As for the experimental part:
Human monocytes were isolated from freshly collected whole blood using CD14 immunomagnetic beads (Miltenyi-Biotec). Cells were then plated in 24-well plates at 5×10^4 cells/well in RPMI-1640 culture medium supplemented with 10% fetal bovine serum (FBS). The specified compounds were then added to the cultures at the indicated concentrations (100, […], 1000 nM); in control wells, no compound was added. 30 min later, HIV-1 Tat was added to a final concentration of 50 nM the cells were incubated for 8 hours (in control wells, nothing was added [NT]). Cell supernatants were then collected, centrifuged 15 min at 13000 rpm to remove debris, transferred to new microcentrifuge tubes and frozen at −20° C. A Luminex bead array assay was then performed, for the indicated chemokines and cytokines. Results were measured in triplicate or quadruplicate, and data are presented as mean values; error bars denote the standard deviation. Note that similar results were obtained with monocytes derived from multiple (n>5) different donors, as well as in terminally differentiated monocyte-derived macrophages (data not shown due to space limitations). *:p<0.05; one-way ANOVA with Bonferroni's correction (when compared to Tat only control). See FIG. 11 (tat-induced cytokine production) and FIG. 12 (tat-induced chemokine production).

Another experiment concerns HIV-1 ADA. The experiment can be described thus: HIV-1 infection model in humanized mice. The experiment is classed as in vivo. Particulars: nanoART 6 weeks s.c.; Compound AH 10 mg/kg i.p. once daily during final two weeks. The procedure:
The MLK inhibitor Compound AH was used in test with an animal model for HIV-1 infection. Specifically, 22 week old humanized mice (NOD/scidIL-2Rγc^null (NSG) mice stably engrafted with human CD34+ hematopoeitic stem cells were infected with HIV-1 ADA (Gorantla et al., J. Virol. 81:2700-2712, 2007). The mice were then treated with the nanoformulated antiretroviral therapy comprising atazanavir and ritonavir (nanoART) for 6 weeks by s.c. injections (6×/week). During the final two weeks, the animals also received the MLK-3 inhibitor Compound AH by once daily injection (10 mg/kg i.p.). Viral RNA load was measured over time in plasma from these mice, and productively infected cells were counted in tissues harvested from animals at sacrifice (including lymph node (FIG. 4) and spleen (FIG. 5)).
Further, starting at 10 weeks post infection, when the mice were at the peak of their viral load (VL) the MLK-3 inhibitor Compound AH was administered daily and the nanoART was administered weeks for three weeks. Peripheral VL ratio of human CD4+ and CD8+ T lymphocyte, drug levels in plasma and organs and pathological changes in lymphoid and brain tissues were investigated.
(§1) Higher plasma drug levels correspond to lowest viral load.

A further experiment deals with Rab7 (Homo sapiens (Human), UniProt P51149). Nature of the experiment: Proteomic analyses of human monocyte-derived macrophages (Rab7). It is filed as cell-based. Particulars: HIV-1 infected MDM.
Text: FIG. 7 (top) is a schematic of a proteomic analysis.
FIG. 8 is a photograph from a Western blot validation for Rab7a. Rab7A (Protein KB) is a key regulator in endolysosomal trafficking. It governs early-to-late endosomal maturation, microtubule minus-end as well as plus-end directed endosomal migration and positioning, and endosome-lysosome transport.
as §1

The next experiment relates to MOG35-55 EAE mice. Nature of the experiment: MOG35-55 EAE model. The experiment is classed as in vivo. The source says: Hippocampal synaptic injury in MOG35-55 EAE mice correlates with microglial activation and may occur independent of myelin loss. […] Protective effects in EAE hippocampal gray matter appear dissociable from those in the spinal cord. Many interventions targeting microglial function affect EAE motor deficits and the spinal cord inflammation that those largely reflect.

Experiment [2] relates to Rab 7 late endosomal compartment. Nature of the experiment: Rab studies: nanoART drug levels in endosomal compartments. The experiment is classed as cell-based. As for the experimental part:
FIG. 25 is a graph showing that Compound AH is able to sustain the presence of atazanavir/ritonavir nanoART in late endosomes. Concentrations of 1 and 10 ng/mL of Compound AH increases drug levels for more than 10 days in these compartments. This is significant and reproducible. […] Thus more of the drug is present in there for longer time periods, boosting efficacy and leading to reduction of residual virus.
The Rab 7 compartment increased marked in size and expression (protein content) as a result of HIV infection. […] That is also where anti-HIV proteases work and where their sites of actions lie. […] This signals that the combination has eliminated or nearly so, the ability of virus to assemble in this compartment.

Another experiment deals with Tat (Human immunodeficiency virus type 1 group M subtype B (isolate HXB2) (HIV-1), UniProt P04608). Nature of the experiment: Tat injection model, synapse protection and neuroinflammation (FIGS. 10-24). The experiment is classed as in vivo. The procedure:
FIG. 19 is a group of photographs showing IHC synapse protection. Map2 staining 28 days post injection at the injection site. Pre/continuous treatment with Compound AH at 10 mg/kg i.p. q 12, 9 μg of Tat injected at 80 nL/min. The same Compound AH/Tat treatment paradigm was used in FIGS. 20-24.
(FIGS. 10-24). The compound is a selectively non-selective inhibitor for a subset of kinases that have pathogenetic roles for activation of immune effector cells with damage to target cells (neurons, myocytes, pancreatic acinar cells) in both central and peripheral degenerative diseases with autoimmune components.

Chain of Tat (P04608 whole entry, looked up): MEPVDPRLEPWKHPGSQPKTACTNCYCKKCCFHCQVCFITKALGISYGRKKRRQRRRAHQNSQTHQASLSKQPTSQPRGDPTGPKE
Chain of MLK3 (Q66HA1 whole entry): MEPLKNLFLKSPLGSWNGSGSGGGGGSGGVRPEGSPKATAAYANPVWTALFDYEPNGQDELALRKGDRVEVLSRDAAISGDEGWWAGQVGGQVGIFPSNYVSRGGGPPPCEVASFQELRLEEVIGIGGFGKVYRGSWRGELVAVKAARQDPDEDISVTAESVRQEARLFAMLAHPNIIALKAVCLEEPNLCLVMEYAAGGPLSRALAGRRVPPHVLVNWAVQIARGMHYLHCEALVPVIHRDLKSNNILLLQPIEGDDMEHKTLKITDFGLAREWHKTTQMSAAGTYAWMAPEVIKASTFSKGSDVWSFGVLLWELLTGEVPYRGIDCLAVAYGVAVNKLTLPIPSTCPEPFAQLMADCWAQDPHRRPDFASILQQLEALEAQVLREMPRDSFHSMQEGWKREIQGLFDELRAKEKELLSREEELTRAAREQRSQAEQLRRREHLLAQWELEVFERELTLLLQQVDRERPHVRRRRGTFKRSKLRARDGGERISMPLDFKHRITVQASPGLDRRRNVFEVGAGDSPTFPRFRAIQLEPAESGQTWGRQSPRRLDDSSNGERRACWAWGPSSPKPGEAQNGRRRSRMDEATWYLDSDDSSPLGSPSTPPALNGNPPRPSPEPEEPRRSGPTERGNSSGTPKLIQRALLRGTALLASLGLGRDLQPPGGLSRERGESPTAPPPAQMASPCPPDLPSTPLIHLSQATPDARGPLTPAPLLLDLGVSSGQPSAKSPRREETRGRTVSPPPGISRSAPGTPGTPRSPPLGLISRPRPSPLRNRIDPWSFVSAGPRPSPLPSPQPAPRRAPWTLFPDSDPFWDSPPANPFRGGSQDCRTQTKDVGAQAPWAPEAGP

Regarding `CCSCc1ccc2c(c1)c1c3c(c4c5cc(CSCC)ccc5n5c4c1n2[C@H]1C[C@](O)(C(=O)OC)[C@]5(C)O1)CNC3=O` (relative stereo) [CEP1347, 3,9-bis[(ethylthio)methyl]-(8R*,9S*, 11S*)-(−)-9-hydroxy-9-methoxycarbonyl-8-methyl-2,3,9,10-tetrahydro-8,11-epoxy-1H,8H, 11H-2,7b,11a-triazadibenzo(a,g)cycloocta(cde)trinden-1-one], the “protection of neurons from lethal effects of HIV-1 gp120” value in experiment [1] is “can protect primary rat hippocampal neurons as well as dorsal root ganglion neurons”. The neuroprotection in vivo result in the experiment on HIV-1 was “neuroprotective”. Further, the “Tat and gp120 induced autophosphorylation of MLK3” value at MLK3 is given as “abolished”.

In the case of `CN1CCN(Cc2ccc(-c3cnc4[nH]cc(-c5ccc6[nH]ccc6c5)c4c3)cc2)CC1` [Compound AH], the tat-induced cytokine production entry in the experiment on Human monocytes (FIG. 11) is “blocks tat-induced cytokine production”. Besides, in the experiment on Human monocytes (FIG. 12), the tat-induced chemokine production entry was “blocks tat-induced chemokine production”. Moreover, the HIV-1 viral load result in the experiment with HIV-1 ADA is recorded as “modest reducing in HIV-1 viral load”. Further, the Rab7 protein regulation entry on Rab7 is on record as “induced the RAS-related GTP-binding protein Rab7”. Besides, in the experiment with MOG35-55 EAE mice (EAE hippocampus), the “microglial activation in EAE hippocampus” value was “attenuates microglial activation” and the “synaptic structure in EAE hippocampus” value is “protects synaptic structure”. In addition, the EAE motor deficits entry in the experiment with MOG35-55 EAE mice (treatment at onset of clinical disease) is recorded as “no effect on EAE motor deficits”. For the same molecule, the “time for which atazanavir/ritonavir nanoART drug levels in late endosomes are increased” value in [2] (1 and 10 ng/mL of Compound AH, FIG. 25) is listed as “more than 10 days”. Besides, in [2] (Compound AH induction), the “drug levels in Rab compartments” value was “general increase in drug levels was seen in all Rab compartments”. Besides, the “neuroprotection to the synapse” value on Tat (Compound AH 10 mg/kg i.p. q 12, 9 μg of Tat injected) is on record as “provides neuroprotection to the synapse”. Also, the neuroinflammation entry on Tat (FIGS. 10-24) is listed as “anti-neuroinflammatory”.

The values above are taken from patent publication US10485800B2, “Mixed lineage kinase inhibitors for HIV/AIDS therapies” (UNIVERSITY OF ROCHESTER, priority 2012, dated 2019).
